The source of these data is US11072634B2, “Inhibitors of transglutaminases” (Zedira GmbH, priority 2016, dated 2021).

The target in data set [1] is T1, recombinant human factor XIII A-subunit (rhFXIII-A, plasma transglutaminase) (Homo sapiens, UniProt P00488).
T1 construct: His6; purchased Zedira 1027 (so in the source); T027)
T1 sequence (P00488 39-732 limits assumed): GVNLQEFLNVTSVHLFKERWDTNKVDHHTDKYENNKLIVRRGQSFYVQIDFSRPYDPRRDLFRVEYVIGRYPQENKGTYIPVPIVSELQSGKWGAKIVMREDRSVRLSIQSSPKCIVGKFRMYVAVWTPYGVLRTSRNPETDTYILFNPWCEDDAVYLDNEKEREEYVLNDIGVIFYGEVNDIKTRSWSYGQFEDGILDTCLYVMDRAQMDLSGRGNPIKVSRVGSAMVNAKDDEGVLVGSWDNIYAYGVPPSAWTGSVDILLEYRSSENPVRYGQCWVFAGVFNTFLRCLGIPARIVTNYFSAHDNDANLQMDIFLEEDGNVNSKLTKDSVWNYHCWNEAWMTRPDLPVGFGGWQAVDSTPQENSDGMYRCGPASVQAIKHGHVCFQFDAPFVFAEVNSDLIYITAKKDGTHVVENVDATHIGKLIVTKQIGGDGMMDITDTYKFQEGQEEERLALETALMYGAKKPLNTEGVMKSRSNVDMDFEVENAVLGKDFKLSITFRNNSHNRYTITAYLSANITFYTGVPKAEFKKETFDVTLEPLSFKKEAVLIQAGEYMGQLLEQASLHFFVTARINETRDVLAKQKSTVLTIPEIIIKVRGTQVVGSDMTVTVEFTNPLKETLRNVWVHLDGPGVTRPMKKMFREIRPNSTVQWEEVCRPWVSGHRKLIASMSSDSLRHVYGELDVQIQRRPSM
Briefly: Inhibition of rec. human coagulation factor XIII (fluorescence, Abz-NE(CAD-DNP)EQVSPLILLK-OH). Type of data set: biochemical. To be noted: Table 1, selectivity with respect to FXIII; read-out: IC50 FXIII. In outline:
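His6-rhFXIII activated by human alpha thrombin in Tris buffer pH 7.4 with 7.5 mM CaCl2, 5 mM DTT, 13.4 mM glycine methylester and 50 μM quenched peptide substrate. Fluorescence (ex 313, em 418 nm) followed at 37 °C for 35 min; IC50 from slope between 20 and 30 min versus 2% DMSO control.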

The test system of data set [2] is Huh7 (human liver carcinoma cell line). Description: Cell Proliferation ELISA, BrdU. It is filed as cell-based. Conditions: highest concentration 1 mM. Here is the method:
(§1) The following cell lines are used for determination of cytotoxicity: • CaCo2 (human colon carcinoma cell line) • Huh7 (human liver carcinoma cell line).
(§2) Cells are cultivated in DMEM/10% FCS at 37° C. and 5% CO2 in a 96 well plate with an initial seeding density of 2×10^4 cells/well.
(§3) Transglutaminase inhibitors are added to the cells with final concentrations from 0.1 μM to 1 mM one hour after seeding. The different inhibitor dilutions are prepared in DMSO, resulting in a final concentration of 1% (v/v) DMSO in every well (2 μl inhibitor in 200 μl cell culture medium). Cycloheximide (2.5 μg/ml) and Camptothecin (0.2 μg/ml) are used as control compounds. All measurements are performed in triplicates.
(§4) Determination of proliferation using Cell Proliferation ELISA, BrdU (Roche, Cat. No. 11647229001).
(§5) After 24 h of incubation with inhibitors or controls, BrdU is added to the cells. After further incubation for 18 h, the cells are fixed and cellular DNA becomes denatured. A monoclonal antibody (conjugated with peroxidase) raised against BrdU is added to the wells and binds to BrdU which is incorporated into the DNA. Substrate solution is added and absorbance at 450 nm is recorded. Further analysis is performed according to the manufacturer's protocol.

Data set [3] deals with CaCo2 (human colon carcinoma cell line). Description: Cell Proliferation ELISA, BrdU. Type of data set: cell-based. To be noted: highest concentration 1 mM. How it is done:
as §1, §2, §3, §4, §5

For data set [4], the system named is Huh7 (human liver carcinoma cell line). Description: Metabolic activity, EZ4U-Assay. Type of data set: cell-based. Conditions: highest concentration 1 mM. How it is done: as §1, §2, §3
(§6) Determination of metabolic activity using EZ4U-Assay (Biomedica, Cat. No. BI-5000).
(§7) After 48 h of incubation with inhibitors or controls, the tetrazolium substrate is added to the cells. Substrate turnover by the cells is measured over two hours at 450 nm (using 630 nm was reference wavelength).

Data set [5] concerns CaCo2 (human colon carcinoma cell line). Description: Metabolic activity, EZ4U-Assay. Type of data set: cell-based. To be noted: highest concentration 1 mM. Here is the method: as §1, §2, §3, §6, §7

SMILES strings stand for the structures.

Turning to `CC(=O)N1CCC[C@H]1C(=O)N[C@@H](CCC(=O)C(N)=O)C(=O)N1CCN(c2ncccc2C)CC1` [Compound E07, (S)-1-acetyl-N—((S)-6-amino-1-(4-(3-methylpyridin-2-yl)piperazin-1-yl)-1,5,6-trioxohexan-2-yl)pyrrolidine-2-carboxamide], the IC50 in data set [1] is over 100 µM. The “Cytotoxicity concentration (>10% deviation from negative control), BrdU, Huh-7” value in data set [2] was over 1 mM. Also, the “Cytotoxicity concentration (>10% deviation from negative control), BrdU, Caco2” value in data set [3] is given as over 1 mM. Moreover, the “Cytotoxicity concentration (>10% deviation from negative control), EZ4U, Huh-7” value in data set [4] is reported as over 1 mM. Besides, the “Cytotoxicity concentration (>10% deviation from negative control), EZ4U, Caoo2” value in data set [5] is over 1 mM.
For the compound `CC(=O)N[C@@H](CCC(=O)C(N)=O)C(=O)N1CCN(c2ccccc2Cl)CC1` [Compound E06, (S)-5-acetamido-6-(4-(2-chlorophenyl)piperazin-1-yl)-2,6-dioxohexanamide], the IC50 in data set [1] was over 100 µM. The “Cytotoxicity concentration (>10% deviation from negative control), BrdU, Huh-7” value in data set [2] is given as over 1 mM. In addition, the “Cytotoxicity concentration (>10% deviation from negative control), BrdU, Caco2” value in data set [3] is recorded as over 1 mM. In addition, the “Cytotoxicity concentration (>10% deviation from negative control), EZ4U, Huh-7” value in data set [4] is on record as over 1 mM. Moreover, the “Cytotoxicity concentration (>10% deviation from negative control), EZ4U, Caoo2” value in data set [5] was over 1 mM.
For `COC(=O)[C@H](CC(C)C)NC(=O)[C@@H]1CCCN1C(=O)[C@@H](NC(=O)[C@H](CCC(=O)C(N)=O)NC(=O)OCc1ccccc1)C(C)C` [Compound E02, (S)-methyl 2-((S)-1-((S)-2-((S)-6-amino-2-(benzyloxycarbonylamino)-5,6-dioxo-hexanamido)-3-methylbutanoyl)pyrrolidine-2-carboxamido)-4-methylpentanoate], the half-inhibitory concentration (IC50) in data set [1] is over 100 µM. Further, the “Cytotoxicity concentration (>10% deviation from negative control), BrdU, Huh-7” value in data set [2] is reported as over 1 mM. For the same compound, in data set [3], the “Cytotoxicity concentration (>10% deviation from negative control), BrdU, Caco2” value is reported as over 1 mM. Also, in data set [4], the “Cytotoxicity concentration (>10% deviation from negative control), EZ4U, Huh-7” value is over 1 mM. In addition, the “Cytotoxicity concentration (>10% deviation from negative control), EZ4U, Caoo2” value in data set [5] was over 1 mM.
